Reference: ChEMBL document CHEMBL1150547, “-Phenoxyphenylacetic acid derived angiotensin II antagonists with low nanomolar AT1/AT2 receptor subtype affinity (Part II)” (Bioorg Med Chem Lett, 1995)

Tests used:
[1] = molecular target: T1, Type-2 angiotensin II receptor (Rattus norvegicus, UniProt P35351); experiment: Tested for its ability to displace the specific binding ligand [125I]-Sar 1,lle8-AlI from rat midbrain membrane (AT2 receptor); type: tissue-based
T1 sequence (P35351 whole entry): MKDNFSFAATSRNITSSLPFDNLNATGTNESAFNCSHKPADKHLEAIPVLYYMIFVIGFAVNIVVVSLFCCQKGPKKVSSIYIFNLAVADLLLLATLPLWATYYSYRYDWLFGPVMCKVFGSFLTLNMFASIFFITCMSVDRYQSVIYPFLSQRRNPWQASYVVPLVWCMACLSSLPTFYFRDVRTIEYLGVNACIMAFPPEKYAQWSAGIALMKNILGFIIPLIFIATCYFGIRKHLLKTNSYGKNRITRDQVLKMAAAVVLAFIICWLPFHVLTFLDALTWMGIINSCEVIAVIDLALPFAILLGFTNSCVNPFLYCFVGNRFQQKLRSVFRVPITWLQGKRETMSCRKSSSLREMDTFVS

[2] = molecular target: T2, Type-1 angiotensin II receptor (Oryctolagus cuniculus, UniProt P34976); experiment: Tested for its ability to displace the specific binding ligand [125I]-Sar 1,lle8-AlI from rabbit aortic membrane (AT1 receptor)
T2 sequence (P34976 whole entry): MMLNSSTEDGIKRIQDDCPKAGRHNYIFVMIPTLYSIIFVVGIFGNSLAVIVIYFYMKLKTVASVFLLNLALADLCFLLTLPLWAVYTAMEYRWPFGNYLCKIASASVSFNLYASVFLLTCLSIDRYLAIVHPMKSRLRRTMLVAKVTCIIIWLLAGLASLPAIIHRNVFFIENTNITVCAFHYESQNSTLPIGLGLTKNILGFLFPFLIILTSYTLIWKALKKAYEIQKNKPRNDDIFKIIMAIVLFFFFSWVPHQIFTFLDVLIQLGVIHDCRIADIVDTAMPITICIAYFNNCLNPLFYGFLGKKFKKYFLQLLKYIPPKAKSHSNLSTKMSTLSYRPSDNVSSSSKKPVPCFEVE

Row | IC50 [1] [nM] | IC50 [2] [nM] | SMILES
1 | 1200 | 140 | CCOc1cc(Cn2c(CC)nc3c(C)cc(C)nc32)ccc1OC(C(=O)O)c1ccccc1 (centres undefined)
2 | 1700 | 3.4 | CCc1nc2c(C)cc(C)nc2n1Cc1ccc(OC(C(=O)O)c2ccccc2C)c(Cl)c1 (centres undefined)
3 | 5200 | 6 | CCc1nc2c(C)cc(C)nc2n1Cc1ccc(OC(C(=O)O)c2ccccc2C)cc1 (centres undefined)
4 | 7800 | 16 | CCc1nc2c(C)cc(C)nc2n1Cc1cc(Cl)c(OC(C(=O)O)c2ccccc2)c(OC)c1 (centres undefined)
5 | 2000 | 93 | CCCCc1nc2ccccc2n1Cc1ccc(OC(C(=O)O)c2ccccc2)cc1 (centres undefined)
6 | 2000 | 29 | CCc1nc2c(C)cc(C)nc2n1Cc1ccc(OC(C(=O)O)c2ccccc2)cc1 (centres undefined)
7 | 47 | 11 | CCCc1cc(Cn2c(CC)nc3c(C)cc(C)nc32)ccc1OC(C(=O)O)c1ccccc1 (centres undefined)
8 | 760 | 2.2 | C=CCc1cc(Cn2c(CC)nc3c(C)cc(C)nc32)cc(Cl)c1OC(C(=O)O)c1ccccc1 (centres undefined)
9 | 940 | 14 | CCc1nc2c(C)cc(C)nc2n1Cc1ccc(OC(C(=O)O)c2ccccc2)c(C)c1 (centres undefined)
10 | 300 | 50 | CCc1nc2c(C)cc(C)nc2n1Cc1ccc(OC(C(=O)O)c2ccccc2)c(C(C)(C)C)c1 (centres undefined)
11 | 2400 | 11 | CCCc1cc(Cn2c(CC)nc3c(C)cc(C)nc32)ccc1OC(C(=O)O)c1ccccc1C (centres undefined)
12 | 2900 | 170 | CCc1nc2c(C)cc(C)nc2n1Cc1ccc(OC(C(=O)O)c2ccccc2)c(OC)c1 (centres undefined)
13 | 140 | 12 | CCCCc1cc(Cn2c(CC)nc3c(C)cc(C)nc32)ccc1OC(C(=O)O)c1ccccc1 (centres undefined)
14 | 720 | 15 | CCc1nc2c(C)cc(C)nc2n1Cc1ccc(OC(C(=O)O)c2ccccc2)c(Cl)c1 (centres undefined)
15 | > 1000 | 8 | CCCc1cc(Cn2c(CC)nc3c(C)cc(C)nc32)ccc1OC(C(=O)O)c1ccccc1Cl (centres undefined)
16 | 3300 | 30 | CCc1nc2c(C)cc(C)nc2n1Cc1ccc(OC(C(=O)O)c2ccccc2)c(C(C)C)c1 (centres undefined)
17 | 15000 | 10 | CCc1nc2c(C)cc(C)nc2n1Cc1ccc(OC(C(=O)O)c2ccccc2Cl)cc1 (centres undefined)
18 | 760 | 260 | CCCCc1nc2ccc(C)cc2c(=O)n1Cc1ccc(OC(C(=O)O)c2ccccc2)cc1 (centres undefined)
19 | 3400 | 65 | CCCc1nc2c(C)ccnc2n1Cc1ccc(OC(C(=O)O)c2ccccc2)cc1 (centres undefined)
20 | 60 | 120 | CCc1nc2c(C)cc(C)nc2n1Cc1ccc(OC(C(=O)O)c2ccccc2)c(C(=O)c2ccccc2)c1 (centres undefined)
21 | 270 | 20 | C=CCc1cc(Cn2c(CC)nc3c(C)cc(C)nc32)ccc1OC(C(=O)O)c1ccccc1 (centres undefined)
22 | 610 | 62 | CCc1nc2c(C)cc(C)nc2n1Cc1ccc(OC(C(=O)O)c2ccccc2)c(C(C)=O)c1 (centres undefined)
23 | 410 | 12 | CCc1cc(Cn2c(CC)nc3c(C)cc(C)nc32)ccc1OC(C(=O)O)c1ccccc1 (centres undefined)
24 | 1200 | 9.5 | CCCc1cc(Cn2c(CC)nc3c(C)cc(C)nc32)ccc1OC(C(=O)O)c1ccccc1OC (centres undefined)
25 | 9000 | 21 | CCc1nc2c(C)cc(C)nc2n1Cc1cc(Cl)c(OC(C(=O)O)c2ccccc2)c(Cl)c1 (centres undefined)
26 | 3000 | 69 | CCc1nc2c(C)cc(C)nn2c1Cc1ccc(OC(C(=O)O)c2ccccc2)cc1 (centres undefined)
27 | 800 | 95 | CCc1nc2c(C)cc(C)nc2n1Cc1ccc(OC(C(=O)O)c2ccccc2)c(Cc2ccccc2)c1 (centres undefined)
